The structures appear in SMILES notation.

The series concerns cancer cells. The series is described as follows: MTT cytotoxic assay of esterification products (Cytotoxicity activity). Format: cell-based, human. To be noted: MTT cytotoxic assay, isolated esterification products of E4A. The text has this:
The peaks, fractions and compounds are selected according to the activities of times studies and the changes of peaks. Selecting the HPLC fractions for isolation is according to the cytotoxic activity of the reaction product obtained at a specific time. The compounds having strong to weak activities are selected and isolated. Selecting the HPLC fractions for isolation may be according to the cytotoxic activity of times studies and the change of peaks. The anti-cancer activities are the MTT studies of bone (U2OS), lung (H460), bladder (HTB-9), ovary (ES2), colon (HCT116), pancreas (Capan), ovary(OVCAR3), prostate (DU145), skin (SK-Mel-5), mouth (KB), kidney (A498), breast (MCF-7), liver (HepG2), brain (T98G), leukemia (K562), cervix (HeLa).
Esterification of compound (A), (B), (C), (D1), (D2), (E), (F), (G), (H1), (H2), E4A, E4A2Y, (P1), P(2), terpene, isoprene, triterpenes, hydroxylated triterpenes, with acyl halide, wherein the halide comprise chloride, bromide, fluoride and iodide, wherein the acyl halide comprise acyl chloride, wherein acyl chloride comprise tigloyl chloride, angeloyl chloride, acetyl chloride, crotonoyl chloride, 3,3-Dimethylacryloyl chloride, senecioyl chloride, cinnamoyl chloride, pentenoyl chloride, hexanoyl chloride, benzoyl chloride, ethylbutyryl chloride, propionyl chloride, 2-propenoyl chloride, isobutyryl chloride, butyryl chloride, (2E)-2-pentenoyl chloride, 4-Pentenoyl chloride, 5-hexenoyl chloride, heptanoyl chloride, octanoyl chloride, nonanoyl chloride, decanoyl chloride, Lauroyl chloride, myristoyl chloride, oleoyl chloride. The compounds vary in composition when the time or temperature of the reaction is changed. The peaks, fractions and compounds are selected according to the activities of times studies and the changes of peaks. The compounds having strong to weak activities are selected and isolated. The anti-cancer activities (Cytotoxic Assay) are the MTT studies of bone (U2OS), lung (H460), bladder(HTB-9), ovary (ES2), colon (HCT116), pancreas (Capan), ovary(OVCAR3), prostate (DU145), skin (SK-Mel-5), mouth (KB), kidney (A498), breast (MCF-7), liver (HepG2), brain (T98G), leukemia (K562), cervix (HeLa). The active esterification products are purified with HPLC. The reaction product of mixtures and individual compounds are tested with MTT Cytotoxic Assay. Details of method are in Experiment 3 of the present application. A second esterification of compound can be selected from the above experiment results to produce new active compounds. A partial esterification compound is selected from the above experiments to perform a second or repeated with a third esterification with different acyl chloride in order to produce new active compounds with the experiments in the present application.
Method: 40 mg of triterpene core (fraction IV) was dissolved in 1 ml pyridine in a 50 ml tube. Reaction is started by adding 0.2 ml of acyl chloride (Tigloyl chloride, angeloyl chloride, Acetyl chloride, Crotonoyl chloride, 3,3-Dimethylacryloyl chloride(senecioyl chloride), Cinnamoyl chloride, Pentenoyl chloride, Hexanoyl chloride, benzoyl chloride or Ethylbutyryl chloride). The mixture is stirred for 5 sec, 1 min, 2 min, 5 min, 10 min, 30 min, 1 hr, 2 hr, 18 hr, 2 days or 3 days at 0° C., 25° C. or 75° C. temperature. At the end of reaction, 5 ml of 2N HCl or 1 M NaHCO3 is added to the reaction mixture. The solution is then extracted 3 times with 10 ml of ethyl acetate which is then evaporated under vacuum and at 45C and lyophilization. The reaction product is dissolved in 80% acetonitrile - 0.005% Trifluoroacetic acid or DMSO; and was separated with HPLC. Selecting the HPLC fractions for isolation is according to the cytotoxic activity of the reaction product obtained at a specific reaction time. The active esterification products are purified with HPLC. The reaction product of mixtures and individual compounds are tested with MTT cytotoxic assay. Structures are determined with NMR. […]
(In general: Formazan colour is commonly taken as a measure of viable cells.)

Regarding `CC=C(C)C(=O)OCC1(C)C(O)CCC2(C)C1CCC1(C)C2CC=C2C3CC(C)(C)C(O)C(O)C3(CO)C(O)CC21C` (centres unmarked) [Compound A1], the Cytotoxicity activity entry was “moderate”.

On to `CC=C(C)C(=O)OCC12C(O)CC3(C)C(=CCC4C5(C)CCC(O)C(C)(CO)C5CCC43C)C1CC(C)(C)C(O)C2O` (centres unmarked) [Compound A2], for which the Cytotoxicity activity result is reported as “moderate”. On to `CC=C(C)C(=O)OCC1(C)C(O)CCC2(C)C1CCC1(C)C2CC=C2C3CC(C)(C)C(O)C(O)C3(COC(=O)C(C)=CC)C(O)CC21C` (centres unmarked) [Compound A3], for which the Cytotoxicity activity entry is “strong”. `CC=C(C)C(=O)OCC1(C)C(O)CCC2(C)C1CCC1(C)C2CC=C2C3CC(C)(C)C(OC(=O)C(C)=CC)C(O)C3(COC(=O)C(C)=CC)C(O)CC21C` (centres unmarked) [Compound A4]: the Cytotoxicity activity result is “moderate”. Turning to `CC=C(C)C(=O)OCC1(C)C(O)CCC2(C)C1CCC1(C)C2CC=C2C3CC(C)(C)C(O)C(OC(=O)C(C)=CC)C3(COC(=O)C(C)=CC)C(O)CC21C` (centres unmarked) [Compound A5], the Cytotoxicity activity entry is listed as “moderate”. As for `CC=C(C)C(=O)OCC1(C)C(OC(=O)C(C)=CC)CCC2(C)C1CCC1(C)C2CC=C2C3CC(C)(C)C(O)C(O)C3(COC(=O)C(C)=CC)C(O)CC21C` (centres unmarked) [Compound A6], the Cytotoxicity activity entry was “moderate”.

As for `CC=C(C)C(=O)OCC1(C)C(O)CCC2(C)C1CCC1(C)C2CC=C2C3CC(C)(C)C(O)C(O)C3(COC(=O)C(C)=CC)C(OC(=O)C(C)=CC)CC21C` (centres unmarked) [Compound A7], the Cytotoxicity activity result is listed as “moderate”. As for `CC=C(C)C(=O)OCC1(C)C(O)CCC2(C)C1CCC1(C)C2CC=C2C3CC(C)(C)C(OC(=O)C(C)=CC)C(OC(=O)C(C)=CC)C3(COC(=O)C(C)=CC)C(O)CC21C` (centres unmarked) [Compound A8], the Cytotoxicity activity entry was “weak”. Take `CC=C(C)C(=O)OCC1(C)C(OC(=O)C(C)=CC)CCC2(C)C1CCC1(C)C2CC=C2C3CC(C)(C)C(O)C(OC(=O)C(C)=CC)C3(COC(=O)C(C)=CC)C(O)CC21C` (centres unmarked) [Compound A9]: the Cytotoxicity activity entry is given as “weak”. With `CC=C(C)C(=O)OCC1(C)C(OC(=O)C(C)=CC)CCC2(C)C1CCC1(C)C2CC=C2C3CC(C)(C)C(O)C(O)C3(COC(=O)C(C)=CC)C(OC(=O)C(C)=CC)CC21C` (centres unmarked) [Compound A10] the entry was “weak”; with `CC=C(C)C(=O)OCC1(C)C(OC(=O)C(C)=CC)CCC2(C)C1CCC1(C)C2CC=C2C3CC(C)(C)C(OC(=O)C(C)=CC)C(O)C3(COC(=O)C(C)=CC)C(O)CC21C` (centres unmarked) [Compound A11], “weak”. The entry for `CC=C(C)C(=O)OCC1(C)C(O)CCC2(C)C1CCC1(C)C2CC=C2C3CC(C)(C)C(O)C(OC(=O)C(C)=CC)C3(COC(=O)C(C)=CC)C(OC(=O)C(C)=CC)CC21C` (centres unmarked) [Compound A12] is “weak”; for `CC=C(C)C(=O)OCC1(C)C(O)CCC2(C)C1CCC1(C)C2CC=C2C3CC(C)(C)C(OC(=O)C(C)=CC)C(O)C3(COC(=O)C(C)=CC)C(OC(=O)C(C)=CC)CC21C` (centres unmarked) [Compound A13] it is “weak”; for `CC=C(C)C(=O)OCC1(C)C(OC(=O)C(C)=CC)CCC2(C)C1CCC1(C)C2CC=C2C3CC(C)(C)C(O)C(OC(=O)C(C)=CC)C3(COC(=O)C(C)=CC)C(O)CC21C` (centres unmarked) [Compound A14] it is “weak”. The entry for `CC=C(C)C(=O)OCC1(C)C(OC(=O)C(C)=CC)CCC2(C)C1CCC1(C)C2CC=C2C3CC(C)(C)C(OC(=O)C(C)=CC)C(OC(=O)C(C)=CC)C3(COC(=O)C(C)=CC)C(O)CC21C` (centres unmarked) [Compound A15] is “weak”. Turning to `CC=C(C)C(=O)OCC1(C)C(O)CCC2(C)C1CCC1(C)C2CC=C2C3CC(C)(C)C(OC(=O)C(C)=CC)C(OC(=O)C(C)=CC)C3(COC(=O)C(C)=CC)C(OC(=O)C(C)=CC)CC21C` (centres unmarked) [Compound A16], the Cytotoxicity activity result was “weak”.

`CC=C(C)C(=O)OCC1(C)C(OC(=O)C(C)=CC)CCC2(C)C1CCC1(C)C2CC=C2C3CC(C)(C)C(OC(=O)C(C)=CC)C(O)C3(COC(=O)C(C)=CC)C(OC(=O)C(C)=CC)CC21C` (centres unmarked) [Compound A17]: the Cytotoxicity activity entry is listed as “weak”.

Consider `CC=C(C)C(=O)OCC1(C)C(OC(=O)C(C)=CC)CCC2(C)C1CCC1(C)C2CC=C2C3CC(C)(C)C(O)C(OC(=O)C(C)=CC)C3(COC(=O)C(C)=CC)C(OC(=O)C(C)=CC)CC21C` (centres unmarked) [Compound A18], for which the Cytotoxicity activity result is “weak”.

As to `CC=C(C)C(=O)OCC1(C)C(OC(=O)C(C)=CC)CCC2(C)C1CCC1(C)C2CC=C2C3CC(C)(C)C(OC(=O)C(C)=CC)C(OC(=O)C(C)=CC)C3(COC(=O)C(C)=CC)C(OC(=O)C(C)=CC)CC21C` (centres unmarked) [Compound A19], the Cytotoxicity activity result was “none”. In the case of `CC=C(C)C(=O)OCC12C(O)CC3(C)C(=CCC4C5(C)CCC(O)C(C)(CO)C5CCC43C)C1CC(C)(C)C(OC(=O)C(C)=CC)C2OC(=O)C(C)=CC` (centres unmarked) [Compound A20], the Cytotoxicity activity entry is reported as “moderate”. With `CC=C(C)C(=O)OCC1(C)C(O)CCC2(C)C1CCC1(C)C2CC=C2C3CC(C)(C)C(OC(=O)C(C)=CC)C(OC(=O)C(C)=CC)C3(CO)C(O)CC21C` (centres unmarked) [Compound A21], the Cytotoxicity activity entry is “moderate”.

In the case of `CC=C(C)C(=O)OC1C(OC(=O)C(C)=CC)C2(CO)C(OC(=O)C(C)=CC)CC3(C)C(=CCC4C5(C)CCC(O)C(C)(CO)C5CCC43C)C2CC1(C)C` (centres unmarked) [Compound A22], the Cytotoxicity activity entry is on record as “moderate”.

For the compound `CC=C(C)C(=O)OC1C(OC(=O)C(C)=CC)C2(CO)C(O)CC3(C)C(=CCC4C5(C)CCC(OC(=O)C(C)=CC)C(C)(CO)C5CCC43C)C2CC1(C)C` (centres unmarked) [Compound A23], the Cytotoxicity activity result is “moderate”. On to `CC=C(C)C(=O)OC1C(OC(=O)C(C)=CC)C2(CO)C(O)CC3(C)C(=CCC4C5(C)CCC(O)C(C)(CO)C5CCC43C)C2CC1(C)C` (centres unmarked) [Compound A24], for which the Cytotoxicity activity result is “moderate”.

For `CC=C(C)C(=O)OCC12C(O)CC3(C)C(=CCC4C5(C)CCC(O)C(C)(CO)C5CCC43C)C1CC(C)(C)C(OC(=O)C(C)=CC)C2O` (centres unmarked) [Compound A25], the Cytotoxicity activity entry is given as “moderate”. Regarding `CC=C(C)C(=O)OCC12C(O)CC3(C)C(=CCC4C5(C)CCC(O)C(C)(CO)C5CCC43C)C1CC(C)(C)C(O)C2OC(=O)C(C)=CC` (centres unmarked) [Compound A26], the Cytotoxicity activity result is “moderate”. `CC=C(C)C(=O)OCC12C(O)CC3(C)C(=CCC4C5(C)CCC(OC(=O)C(C)=CC)C(C)(CO)C5CCC43C)C1CC(C)(C)C(O)C2O` (centres unmarked) [Compound A27]: the Cytotoxicity activity entry is recorded as “moderate”.

For `CC=C(C)C(=O)OCC12C(OC(=O)C(C)=CC)CC3(C)C(=CCC4C5(C)CCC(O)C(C)(CO)C5CCC43C)C1CC(C)(C)C(O)C2O` (centres unmarked) [Compound A28], the Cytotoxicity activity result was “moderate”. With `CC=C(C)C(=O)OCC1(C)C(O)CCC2(C)C1CCC1(C)C2CC=C2C3CC(C)(C)C(OC(=O)C(C)=CC)C(O)C3(CO)C(O)CC21C` (centres unmarked) [Compound A29] the entry was “moderate”; with `CC=C(C)C(=O)OCC1(C)C(O)CCC2(C)C1CCC1(C)C2CC=C2C3CC(C)(C)C(O)C(OC(=O)C(C)=CC)C3(CO)C(O)CC21C` (centres unmarked) [Compound A30], “moderate”; with `CC=C(C)C(=O)OCC1(C)C(OC(=O)C(C)=CC)CCC2(C)C1CCC1(C)C2CC=C2C3CC(C)(C)C(O)C(O)C3(CO)C(O)CC21C` (centres unmarked) [Compound A31], “moderate”. With `CC=C(C)C(=O)OCC1(C)C(O)CCC2(C)C1CCC1(C)C2CC=C2C3CC(C)(C)C(O)C(O)C3(CO)C(OC(=O)C(C)=CC)CC21C` (centres unmarked) [Compound A32], the Cytotoxicity activity entry was “moderate”.

Source of the values: patent publication US20230340012A1, “NATURAL AND SYNTHETIC COMPOUNDS FOR TREATING CANCER AND OTHER DISEASES” (PACIFIC ARROW LIMITED, priority 2009, published 2023).
